This note sets out measurements from ChEMBL document CHEMBL4837246 (J Med Chem, 2021).

Series [1] is described as follows: in vivo. The following applies: Wistar, rat, iv, 0.3 mg/kg.
A short description of series [2]: in vivo. The following applies: mouse, iv, 0.3 mg/kg.
The nature of series [3]: in vivo. The following applies: Wistar, rat, iv, 0.3 mg/kg. The source holds these as a separate data set.
The nature of series [4]: in vivo. The following applies: Wistar, rat, po, 0.6 mg/kg.
The nature of series [5]: in vivo. The following applies: mouse, iv, 0.3 mg/kg. This is another data set of the same source.
The nature of series [6]: in vivo. The following applies: mouse, iv, 0.3 mg/kg. The source holds these as a separate data set.
Series [7] is described as follows: in vivo. The following applies: Wistar, rat, iv, 0.3 mg/kg. This is another data set of the same source.
Series [8] in a line: in vivo. The following applies: Wistar, rat, po, 0.6 mg/kg. The source holds these as a separate data set.

In the case of `FC(F)c1cncc(-c2ccc3ncc4nnc(C5=CCCOCC5)n4c3c2)c1`, the results for the half-life at 24 h in series [1], in series [2] and in series [4] were 50.4 min, 40.8 min and 240 min, respectively. The clearance at 24 h is 36.7 mL/min/kg in series [3] and 135 mL/min/kg in series [5]. The Vd at 24 h worked out at 3.7 L/kg in series [6] and 1.8 L/kg in series [7]. In series [8], this compound gave a bioavailability at 24 h of 22%.
